Tests used:
Format in all cases: biochemical
[1] = tested on: urease; test: In vitro test demonstrating breakage of ester bonds (urea buffers with or without urease, 96 well); details: ten minutes
Description: Two different fluorescein diesters were used in this example. These diesters were fluorescein dibutyrate and fluorescein dioctanoate both of which are commercially available or can be prepared by reacting fluorescein under conventional esterification techniques using as acid anhydrides, acid chlorides, etc. as described herein. The structure of fluorescein diesters is as set forth below:
A. Fluorescein dibutryate (each R is —CH2CH2CH2CH3) B. Fluorescein dioctanoate (each R is —CH2CH2CH2CH2CH2CH3) • The assay was conducted with the following: 1. Assay Buffer A: 0.5 M Urea in phosphate buffered saline, pH 7 (freshly prepared from solid urea). 2. Assay Buffer B: Assay Buffer A plus 0.05% bovine serum albumin 3. Urease: 2000 u/mL in phosphate buffered saline (PBS). This equates to about 40 mg per mL. 4. Fluorescein diesters are dissolved in water with 1% DMSO.
100 microliters of PBS, Assay Buffer A, or Assay Buffer B were added to wells of a 96 well cluster. • 10 microliters of urease were added to the indicated wells. • 5 microliters of each diester were added to each well.
The wells were monitored for ten minutes at which time a photograph was taken.

[2] = tested on: urease; test: Second in vitro test: pro-label in normal human urine with or without urease; details: room temperature, approximately 10 minutes
Description: In this example, fluorescein dioctanoate (a non-fluorescent derivative of fluorescein and a pro-label) was combined with normal urine recently obtained from a volunteer. The urine was divided into two containers. The first container (A) contained fluorescein dioctanoate added as a 1% solution in DMSO. The second container (B) additionally contained urease.
Both samples were maintained at room temperature for approximately 10 minutes and the samples were then evaluated for fluorescence. As is well known, the fluorescence emitted by fluorescein is typically a greenish-yellow color.

[3] = tested on: leukocyte esterases; test: Fourth in vitro test: pro-label contacted with blood lysate
Description: Certain E. coli species are a common cause of UTIs. […] So, unlike Example 3 where E. coli was used in the absence of blood components, this example evaluates the results of whether a blood lysate would deacylate the ester bonds of pro-labels. Specifically, this example evaluates if these esterases are present in sufficient quantities in the lysate to effect transformation of the pro-labels to labels by deacylation. Accordingly, fluorescein dioctanoate (a non-fluorescent pro-label) was contacted with a blood lysate. A control composition (phosphate buffered saline) containing the same pro-label was prepared. […] The first column contains the control and the second column contains the pro-labeled solution. This figure is taken at time equal to zero. […] As before, the left column is control and the right column is the blood lysate in the presence of fluorescein dioctanoate. […] As to the greenish tinge around the control test tubes, it is postulated that this is the result of reflection from the bright green fluorescence of the adjacent tubes (not shown). Those tubes were removed from FIG. 4 so as to allow a direct comparison between the control and fluorescein dioctanoate.

[4] = Buffer A: 0.5 M urea in PBS pH 7, no urease
[5] = Buffer B: Buffer A plus 0.05% bovine serum albumin, no urease

| SMILES | fluorescence (photograph) [1, 4] | fluorescence (photograph) ([1]; Buffer B+urease) | fluorescence (photograph) [1, 5] | fluorescein fluorescence in urine sample ([2]; normal human urine plus urease (container B)) | fluorescein fluorescence in urine sample ([2]; normal human urine, no urease (container A)) | fluorescence upon application of UV light ([3]; blood lysate, incubation for 90 minutes) | fluorescence upon application of UV light ([3]; control composition (phosphate buffered saline) containing the same pro-label, 90 minutes) |
| --- | --- | --- | --- | --- | --- | --- | --- |
| CCCC(=O)Oc1ccc2c(c1)Oc1cc(OC(=O)CCC)ccc1C21OC(=O)c2ccccc21 [fluorescein dibutyrate] | no fluorescence | fluorescence | minimal fluorescence | – | – | – | – |
| CCCCCCCC(=O)Oc1ccc2c(c1)Oc1cc(OC(=O)CCCCCCC)ccc1C21OC(=O)c2ccccc21 [fluorescein dioctanoate] | no fluorescence | fluorescence | no to substantially no fluorescence | presence of fluorescein fluorescence | lack of fluorescein fluorescence | evidenced fluorescence | did not |

From patent publication US20180113128A1, “DETECTION OF URINARY TRACT INFECTIONS” (ISI Life Sciences, Inc., priority 2016, published 2018)
